For orientation: solubility (mole fraction) means the moles of solute divided by all moles in the saturated solution. Regarding `COC(=O)/C=C/c1ccc(O)c(OC)c1`, the solubility (mole fraction) is, setting by setting: (in ethyl acetate, 303.15 K) 0.217; (in ethyl acetate, 307.15 K) 0.247; (in ethyl acetate, 312.15 K) 0.279; (in ethyl acetate, 317.15 K) 0.305; (in ethyl acetate, 321.15 K) 0.334; (in n-hexane, 303.15 K) 0.00112. The solubility (mole fraction) stood at 0.00211 (in n-hexane, 307.15 K); 0.00251 (in n-hexane, 312.15 K); 0.00354 (in n-hexane, 317.15 K); 0.00416 (in n-hexane, 321.15 K); 0.215 (in tert-amyl alcohol, 303.15 K); 0.246 (in tert-amyl alcohol, 307.15 K). The solubility (mole fraction) reads like this: (in tert-amyl alcohol, 312.15 K) 0.287; (in tert-amyl alcohol, 317.15 K) 0.312; (in tert-amyl alcohol, 321.15 K) 0.342; (in tert-butanol, 303.15 K) 0.182; (in tert-butanol, 307.15 K) 0.209; (in tert-butanol, 312.15 K) 0.247. The solubility (mole fraction) by setting is: (in tert-butanol, 317.15 K) 0.295; (in tert-butanol, 321.15 K) 0.325.

Regarding `COC(=O)/C=C/c1ccc(O)cc1`, the solubility (mole fraction) was 0.0856 (in ethyl acetate, 303.15 K); 0.0915 (in ethyl acetate, 307.15 K); 0.0997 (in ethyl acetate, 312.15 K); 0.108 (in ethyl acetate, 317.15 K); 0.113 (in ethyl acetate, 321.15 K); 2.81e-05 (in n-hexane, 303.15 K). The solubility (mole fraction) reads like this: (in n-hexane, 307.15 K) 4.38e-05; (in n-hexane, 312.15 K) 6.18e-05; (in n-hexane, 317.15 K) 8.13e-05; (in n-hexane, 321.15 K) 0.000124; (in tert-amyl alcohol, 303.15 K) 0.116; (in tert-amyl alcohol, 307.15 K) 0.126. In addition, the solubility (mole fraction) worked out at 0.154 (in tert-amyl alcohol, 312.15 K); 0.174 (in tert-amyl alcohol, 317.15 K); 0.201 (in tert-amyl alcohol, 321.15 K); 0.0977 (in tert-butanol, 303.15 K); 0.113 (in tert-butanol, 307.15 K); 0.128 (in tert-butanol, 312.15 K). The solubility (mole fraction) (in tert-butanol, 317.15 K) was 0.143 and the solubility (mole fraction) (in tert-butanol, 321.15 K) stood at 0.171.

For `COC(=O)/C=C/c1cc(OC)c(O)c(OC)c1`, the solubility (mole fraction) by setting is: (in ethyl acetate, 303.15 K) 0.117; (in ethyl acetate, 307.15 K) 0.128; (in ethyl acetate, 312.15 K) 0.147; (in ethyl acetate, 317.15 K) 0.157; (in ethyl acetate, 321.15 K) 0.168; (in n-hexane, 303.15 K) 0.000292. The solubility (mole fraction) turned out to be 0.000383 (in n-hexane, 307.15 K); 0.000495 (in n-hexane, 312.15 K); 0.000743 (in n-hexane, 317.15 K); 0.000804 (in n-hexane, 321.15 K); 0.0264 (in tert-amyl alcohol, 303.15 K); 0.0336 (in tert-amyl alcohol, 307.15 K). The solubility (mole fraction) is, setting by setting: (in tert-amyl alcohol, 312.15 K) 0.0644; (in tert-amyl alcohol, 317.15 K) 0.0926; (in tert-amyl alcohol, 321.15 K) 0.14; (in tert-butanol, 303.15 K) 0.0184; (in tert-butanol, 307.15 K) 0.0234; (in tert-butanol, 312.15 K) 0.0523. Also, the solubility (mole fraction) (in tert-butanol, 317.15 K) is 0.0743 and the solubility (mole fraction) (in tert-butanol, 321.15 K) worked out at 0.0973.

The record behind these values is BigSolDB 2.1.
